Reference: patent US3985798A, “11α-HOMO-PROSTANOIC ACIDS AND ESTERS” (American Cyanamid Company, priority 1975, dated 1976)

Tested on: basal gastric acid secretion
Test: Inhibition of Total Acid Output in the Acute Gastric Fistula Rat (inhibition of basal gastric acid secretion)
Format: in vivo, Female Sprague-Dawley rats
Conditions: 10 mg./kg. intraduodenal, vs concurrent vehicle control; for Total Acid Output % Inhibition, 60"(A): sample A, 60 minutes; for Total Acid Output % Inhibition, 120"(B): sample B, 120 minutes
Text: The natural prostaglandins have a broad spectrum of biological properties. Because of these diverse effects their potential therapeutic use is limited. […] On the other hand, they do inhibit gastic acid secretion and accordingly are potentially useful for the treatment of peptic ulcers, gastric hyperacidity and gastric erosion. Inhibition of basal gastric acid secretion can be determined by the following procedure. Female Sprague-Dawley rats weighing 140-160 grams are fasted in individual cages for 18-24 hours. The rats are then lightly anesthetized with ether and their front teeth extracted to avoid destruction of the plastic cannula. A midline incision is then made and the stomach and duodenum exposed. A flanged polyvinyl tube is inserted into the fundic portion of the stomach and secured with a purse string suture line using 4-0 Mersilene. The rat is then dosed by injection of the compound into the duodenum (1.0 ml. per 100 gram body weight). After dosing, the abdominal wall and skin are closed using metal wound clips. The rat is replaced in a cage containing a longitudinal slit to allow the polyvinyl tube to hang freely. An 8 ml. plastic collecting tube is attached to the flanged cannula and hangs freely below the cage. The first 30 minute sample is discarded designating this time as zero. The collecting tube is attached again and samples removed at the end of 60 and 120 minutes. These samples are referred to as A and B in the table. The hourly samples are then transferred to a 15 ml. centrifuge and centrifuged for 5-10 minutes. Total and sediment volume are then recorded with the supernatant volume being used as volume of secretion. A 1 ml. or less aliquot is then removed and placed in a 50 ml. beaker containing 10 ml. of distilled water. This sample is then titrated using 0.01N NaOH to pH 7.0 using a Beckman zeromatic pH meter, Volume, titratable acidity (meq/L), and total acid output (ueg/hour) are recorded. Percent inhibition is determined by comparison with the appropriate control. Groups of three rats were used for preliminary testing, and groups of six rats were used for dose-response evaluations. All compounds are administered in a vehicle consisting of 0.5% methocel, 0.4% Tween 80, and saline at a constant volume of 1 ml./100 gram rat. Samples are dispersed by sonification. Percent inhibition is calculated on basis of concurrent vehicle control.
In Table A which follows is given the effect on total acid output after 120 minutes of a 10 mg./kg. intraduodenal dose of representative compounds of this invention.

SMILES	Total Acid Output % Inhibition, 60"(A) [%]	Total Acid Output % Inhibition, 120"(B) [%]
CCCCC[C@H](O)/C=C/[C@H]1CC=CC(=O)[C@@H]1CCCCCCC(=O)O (relative stereo) [dl-11a-homoprostaglandin A1, 9-oxo-15-hydroxy-11a-homo-10,13-trans-prostadienoic acid]	35	33
CCCCC[C@H](O)/C=C/[C@H]1C[C@H](O)CC(=O)[C@@H]1CCCCCCC(=O)O (relative stereo) [dl-11a-homoprostaglandin E1, 9-oxo-11α,15-dihydroxy-11a-homo-13-trans-prostenoic acid]	69	74
CCCCC[C@@H](O)/C=C/[C@H]1CC=CC(=O)[C@@H]1CCCCCCC(=O)O (relative stereo) [9-oxo-15-epi-hydroxy-11a-homo-10,13-trans-prostadienoic acid]	43	47
